Where “and” joins values, the source holds several entries; their conditions need not be identical. Equal values may be shown once.
Assays:
[1] = system: Mus musculus; conditions: M/F
[2] = system: Rattus norvegicus
[3] = system: Mus musculus; conditions: subchronic, duration: 90 days, oral, M/F, CD1, hepatic
[4] = system: Mus musculus; conditions: subchronic, oral; for NOAEL: M/F, CD1, Hepatic
[5] = system: Rattus norvegicus; conditions: subchronic, oral, diet
[6] = system: Cavia porcellus; conditions: acute, Guinea Pig
[7] = system: Oryctolagus sp.; conditions: for LD50: acute, dermal; for NOAEL: reproduction developmental, duration: 13 days, oral, gavage
[8] = system: Rattus norvegicus; conditions: for LD50 / LC50: acute
[9] = system: Mus musculus; conditions: for LD50: acute
[10] = system: Rattus norvegicus; assay: LC0; higher = less toxic; conditions: acute
[11] = system: Microhyla ornata; conditions: short-term, whole body
[12] = system: Mus musculus
[13] = system: Canidae; conditions: chronic; duration: 2 years; oral; diet; M/F; Dog Other; kidney and spleen pathology
[14] = system: Canidae; conditions: chronic; duration: 24 months; oral; diet; Dog Other; Kidney: Lesions
[15] = system: Rattus norvegicus; conditions: Hershberger; duration: 10 days; oral; gavage; Sprague-Dawley; inactive + Negative + Negative + neither + negative
[16] = system: Rattus norvegicus; conditions: chronic, M/F
[17] = system: Rattus norvegicus; conditions: chronic, duration: 2 years, oral
[18] = subchronic, oral, drinking water, clinical serum chemistry (effects on erythrocytes and reduced humoral immune status)
[19] = subchronic, oral, gavage, dyspnea, abnormal appearance, liver enlargement
[20] = duration: 13 weeks, M/F, Fischer 344, Body Weight Changes: Body weight gain decrease + Food Consumption: decrease + Hematology: MCH decrease MCV decrease + Blood Chemistry: T-…
[21] = subchronic, duration: 90 days, oral, diet, Fischer 344
[22] = reproduction developmental, injection, Intraperitoneal, generation: F1
[23] = subchronic, oral, reduced rbc, packed cell volume and hemoglobin
[24] = subchronic, inhalation, reduced body weight
[25] = inhalation, nasal epithelial lesions
[26] = chronic, duration: 104 weeks, oral, diet, reduced hemoglobin and erythrocyte destruction

Question: What does the source list for `ClCC(Cl)Cl` [1,1,2-Trichloroethane]?
Answer: LOAEL [1, 18]: 44 mg/kg-day; NOAEL [1, 18]: 3.9 mg/kg-day; LOAEL ([2]; acute, duration: 4 hours, inhalation, whole body, M/F, Fischer 344, respiratory): 316 mg/m3; NOAEL ([2]; acute, duration: 1 days, oral, gavage, M, Sprague-Dawley, hepatic): 46 mg/kg-day; NOAEL ([3]; drinking water, immunological): 3.9 mg/kg-day; NOAEL ([4]; duration: 90 days, drinking water, Other): 3.9 mg/kg-day

Question: `Clc1ccc2ccccc2c1` [2-Chloronaphthalene] was tested. Which LOAEL [1, 19] did it give?
Answer: 600 mg/kg-day

Question: What about the NOAEL [1, 19] of the same compound?
Answer: 250 mg/kg-day

Question: And the NOAEL ([4]; duration: 13 weeks, gavage, Respiratory)?
Answer: 250 mg/kg-day

Question: What does the source list for `CCCCC(CC)C(=O)O` (stereo not given) [2-Ethylhexanoic acid]?
Answer: NOAEL [5, 20]: 0.5%; NOEL [5, 20]: 0.1%; NOEL ([5]; F, F344/CrjBR, Body Weight Changes: decrease + Food Consumption: decrease + Blood Chemistry: Cho increase , Alb increase + Absolute Organ Weight: Liver …): < 71 mg/kg-day; NOEL ([5]; M/F, F344/CrjBR, Body Weight Changes: decrease + Food Consumption: decrease + Blood Chemistry: Cho increase , Alb increase + Absolute Organ Weight: Liver …): < 0.1%; LD50 ([6]; dermal): 6300 mg/kg and 5700 mg/kg and 4550 mg/kg; LD50 ([6]; dermal, occlusive): 6500 mg/kg and ≥ 5000 mg/kg and ≤ 10000 mg/kg; LC50 ([6]; inhalation): > 2.39 µg/mL; LD50 [7]: 1260 mg/kg; NOAEL ([7]; F, New Zealand): 25 mg/kg-day; NOAEL ([7]; New Zealand, generation: F1): 250 mg/kg-day; LD50 ([8]; dermal): > 2000 mg/kg; LC50 ([8]; inhalation): > 0.015 µg/mL; LD50 ([8]; oral, gavage): ≥ 1600 mg/kg and ≤ 3200 mg/kg; LD50 ([8]; oral, gavage, Sprague-Dawley): ≥ 1600 mg/kg and ≤ 3200 mg/kg; NOAEL ([8]; reproduction developmental, duration: 10 days, oral, gavage, F, Fischer 344): 250 mg/kg-day; NOAEL ([8]; reproduction developmental, duration: 14 days, oral, drinking water, F, Wistar): 300 mg/kg-day; LOAEL ([8]; reproduction developmental, oral, F, Sprague-Dawley): 446 mg/kg-day; NOAEL ([8]; reproduction developmental, oral, Sprague-Dawley, generation: F1): 446 mg/kg-day; NOAEL ([8]; reproduction developmental, oral, drinking water, Wistar, generation: F0): 300 mg/kg-day; NOAEL ([8]; reproduction developmental, oral, drinking water, Wistar, generation: F1): 100 mg/kg-day; NOAEL ([8]; reproduction developmental, oral, gavage, Wistar, generation: F1): 900 mg/kg-day; NOAEL ([8]; short-term, duration: 2 weeks, oral, gavage, F, Fischer 344): 200 mg/kg-day; NOAEL ([8]; short-term, duration: 2 weeks, oral, gavage, M, Fischer 344): 200 mg/kg-day; NOAEL ([8]; subchronic, duration: 13 weeks, oral, diet, Fischer 344): 300 mg/kg-day; LOAEL (% diet) [8, 21]: 0.5; NOAEL (% diet) [8, 21]: 0.1; NOAEL (% diet) ([8]; subchronic, oral, diet, Fischer 344): 5; LD50 ([9]; injection, Intraperitoneal): 270 mg/kg; LD50 ([9]; injection, subcutaneous): 910 mg/kg; NOAEL (% diet) ([9]; repeat dose other, oral, diet): 1; NOAEL ([9]; reproduction developmental, injection, Intraperitoneal, NMRI, generation: F1): 500 mg/kg-day; LOAEC [9, 22]: 1730 mg/kg-day; NOAEL [9, 22]: ≤ 1150 mg/kg-day; NOAEL ([9]; short-term, duration: 2 weeks, oral, gavage, F, B6C3F1): 1600 mg/kg-day; NOAEL ([9]; short-term, duration: 2 weeks, oral, gavage, M, B6C3F1): 800 mg/kg-day; LC0 ([10]; inhalation): 2.36 mg/L

Question: `Cc1cccnc1` [3-Methylpyridine] was tested. Which LD50 ([7]; occlusive, New Zealand) did it give?
Answer: ≥ 126 mg/kg and ≤ 200 mg/kg

Question: And the LC50 ([8]; inhalation, Sprague-Dawley)?
Answer: < 11800 µg/mL

Question: And the LD50 ([8]; oral, gavage, Fischer 344)?
Answer: 630 mg/kg

Question: And the LD50 ([8]; oral, gavage, Sprague-Dawley)?
Answer: 710 mg/kg

Question: And the LOAEL ([8]; short-term, duration: 2 weeks, inhalation, Crl:CD(SD) BR)?
Answer: 1100 mg/m3

Question: What about the LC0 ([10]; inhalation, Crl:CD(SD) BR) of the same compound?
Answer: ≥ 4950 mg/m3 and ≤ 12600 mg/m3

Question: With `Nc1ccc(C=Cc2ccc(N)cc2S(=O)(=O)O)c(S(=O)(=O)O)c1` [4,4'-Diamino-2,2'-stilbenedisulfonic acid] as the compound, how does the LD50 ([6]; oral) read?
Answer: 47000 mg/kg

Question: And the NOAEL ([8]; reproduction developmental, oral, gavage, Sprague-Dawley, generation: F0)?
Answer: 1000 mg/kg-day

Question: What about the NOAEL ([8]; reproduction developmental, oral, gavage, Sprague-Dawley, generation: F1) of the same compound?
Answer: 1000 mg/kg-day

Question: And the LC0 ([10]; oral, Sprague-Dawley)?
Answer: 3000 mg/kg

Question: Which results are given for `Cc1cc(C(C)(C)c2cc(C)c(O)c(C)c2)cc(C)c1O` [4,4'-Propane-2,2-diylbis(2,6-dimethylphenol)]?
Answer: LOEL ([11]; duration: 9 day, M/F, DNA fragmentation): 1 µM; LOEL ([11]; duration: 11 day, EGFP activitiy): 1 µM

Question: What does the source list for `c1ccc2c(c1)Cc1ccccc1-2` [Fluorene]?
Answer: LOAEL [1, 23]: 250 mg/kg-day; NOAEL [1, 23]: 125 mg/kg-day; NOAEL ([12]; subchronic, duration: 13 weeks, oral, gavage, Erythrocytes: Decreased counts): 125 mg/kg-day; LOAEL ([3]; gavage): 125 mg/kg-day

Question: Which LEL [13] does the source give for `CNC(=O)ON=C(C)SC` [Methomyl] here?
Answer: 10 mg/kg-day

Question: What about the NOEL [13] of the same compound?
Answer: 2.5 mg/kg-day

Question: What about the NOEL [14] of the same compound?
Answer: 2.5 mg/kg-day

Question: And the NOEL [15]?
Answer: 1 mg/kg-day

Question: `P` [Phosphine] was tested. Which NOEL ([16]; oral, body weight and clinical parameters) did it give?
Answer: 0.026 mg/kg-day

Question: And the LOAEL [1, 24]?
Answer: 6.3 mg/m3

Question: And the NOAEL [1, 24]?
Answer: 1.4 mg/m3

Question: What about the NOEL ([17]; diet) of the same compound?
Answer: 0.026 mg/kg-day

Question: What about the NOAEL ([12]; subchronic, duration: 13 weeks, inhalation, intermittent, Whole body: Decreased weight) of the same compound?
Answer: 1.4 mg/m3

Question: `C=COC(C)=O` [Vinyl acetate] was tested. Which LOAEL [16, 25] did it give?
Answer: 704 mg/m3

Question: And the NOAEL [16, 25]?
Answer: 176 mg/m3

Question: What about the NOAEL ([17]; drinking water, Kidney: Altered weight + Whole body: Altered weight) of the same compound?
Answer: 100 mg/kg-day

Question: What about the NOAEL ([12]; chronic, duration: 104 weeks, inhalation, intermittent, Nasal cavity: Lesions) of the same compound?
Answer: 176 mg/m3

Question: And the NOAEL ([2]; chronic, duration: 104 weeks, inhalation, whole body, M/F, Crl:CD(SD)BR Sprague-Dawley, respiratory)?
Answer: 174 mg/m3

Question: What about the NOAEL ([2]; short-term, duration: 4 weeks, inhalation, whole body, M, Sprague-Dawley (Crl:CD BR), respiratory) of the same compound?
Answer: 703 mg/m3

Question: What about the NOAEL ([2]; short-term, duration: 5 days, inhalation, whole body, M, Sprague-Dawley (Crl:CD BR), respiratory) of the same compound?
Answer: 703 mg/m3

Question: How did the LOAEL [1, 26] turn out when `CC(CCl)OC(C)CCl` (stereo not given) [bis(2-Chloro-1-methylethyl) ether] was run?
Answer: 198 mg/kg-day

Question: And the NOAEL [1, 26]?
Answer: 35.8 mg/kg-day

Question: What about the LOAEL ([4]; duration: 13 weeks, gavage, M, SPF-ICR) of the same compound?
Answer: 9.69 mg/kg-day
